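Five concentrations, 48 hours, 96-well plates. Definition used: TGI = concentration required for complete inhibition of growth.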
Assays:
Experiment in all cases: NCI anticancer screen, dose series, 48 h
SK-MEL-5 melanoma = tested on: SK-MEL-5 melanoma
MCF7 breast = tested on: MCF7 breast
CAKI-1 renal = tested on: CAKI-1 renal
NCI-H522 lung = tested on: NCI-H522 lung
KM12 colon = tested on: KM12 colon
TK-10 renal = tested on: TK-10 renal
HOP-62 NSCLC = tested on: HOP-62 NSCLC
OVCAR-4 ovarian = tested on: OVCAR-4 ovarian
EKVX NSCLC = tested on: EKVX NSCLC
SK-MEL-2 melanoma = tested on: SK-MEL-2 melanoma
MDA-N = tested on: MDA-N
SN12C renal = tested on: SN12C renal
MDA-MB-231 breast = tested on: MDA-MB-231 breast
BT-549 breast = tested on: BT-549 breast
NCI-H460 lung = tested on: NCI-H460 lung
HOP-92 NSCLC = tested on: HOP-92 NSCLC
PC-3 prostate = tested on: PC-3 prostate
COLO 205 colon = tested on: COLO 205 colon
SW-620 colon = tested on: SW-620 colon
A549 NSCLC = tested on: A549 NSCLC
MDA-MB-435 = tested on: MDA-MB-435
SK-OV-3 ovarian = tested on: SK-OV-3 ovarian
ACHN renal = tested on: ACHN renal
HCT-116 colon = tested on: HCT-116 colon
HS 578T breast = tested on: HS 578T breast
SF-295 CNS = tested on: SF-295 CNS
SF-539 CNS = tested on: SF-539 CNS
786-0 renal = tested on: 786-0 renal
HL-60(TB) leukemia = tested on: HL-60(TB) leukemia
SNB-75 CNS = tested on: SNB-75 CNS
IGROV1 ovarian = tested on: IGROV1 ovarian
OVCAR-3 ovarian = tested on: OVCAR-3 ovarian
HT29 colon = tested on: HT29 colon
T-47D breast = tested on: T-47D breast
A498 renal = tested on: A498 renal
OVCAR-5 ovarian = tested on: OVCAR-5 ovarian
DU-145 prostate = tested on: DU-145 prostate
SR leukemia = tested on: SR leukemia
NCI-H226 lung = tested on: NCI-H226 lung
MOLT-4 leukemia = tested on: MOLT-4 leukemia
SNB-19 CNS = tested on: SNB-19 CNS
SK-MEL-28 melanoma = tested on: SK-MEL-28 melanoma
SF-268 CNS = tested on: SF-268 CNS
LOX IMVI melanoma = tested on: LOX IMVI melanoma
M14 melanoma = tested on: M14 melanoma
HCT-15 colon = tested on: HCT-15 colon
NCI/ADR-RES ovarian = tested on: NCI/ADR-RES ovarian
RPMI-8226 leukemia = tested on: RPMI-8226 leukemia
K-562 leukemia = tested on: K-562 leukemia
U251 CNS = tested on: U251 CNS
UO-31 renal = tested on: UO-31 renal
UACC-257 melanoma = tested on: UACC-257 melanoma
OVCAR-8 ovarian = tested on: OVCAR-8 ovarian
MALME-3M melanoma = tested on: MALME-3M melanoma
RXF 393 renal = tested on: RXF 393 renal
UACC-62 melanoma = tested on: UACC-62 melanoma
NCI-H23 lung = tested on: NCI-H23 lung
CCRF-CEM leukemia = tested on: CCRF-CEM leukemia
HCC-2998 colon = tested on: HCC-2998 colon

COc1nc2c(c(=O)n1C)N[C@H]1[C@H](OC(C)=O)[C@@H](OC(C)=O)CO[C@H]1N2
TGI (SK-MEL-5 melanoma): > 100 µM | TGI (MCF7 breast): > 100 µM | TGI (CAKI-1 renal): > 100 µM | TGI (NCI-H522 lung): > 100 µM | TGI (KM12 colon): > 100 µM | TGI (TK-10 renal): > 100 µM | TGI (HOP-62 NSCLC): > 100 µM | TGI (OVCAR-4 ovarian): > 100 µM | TGI (EKVX NSCLC): > 100 µM | TGI (SK-MEL-2 melanoma): > 100 µM | TGI (MDA-N): > 100 µM | TGI (SN12C renal): > 100 µM | TGI (MDA-MB-231 breast): > 100 µM | TGI (BT-549 breast): > 100 µM | TGI (NCI-H460 lung): > 100 µM | TGI (HOP-92 NSCLC): > 100 µM | TGI (PC-3 prostate): > 100 µM | TGI (COLO 205 colon): > 100 µM | TGI (SW-620 colon): > 100 µM | TGI (A549 NSCLC): > 100 µM | TGI (MDA-MB-435): > 100 µM | TGI (SK-OV-3 ovarian): > 100 µM | TGI (ACHN renal): > 100 µM | TGI (HCT-116 colon): > 100 µM | TGI (HS 578T breast): > 100 µM | TGI (SF-295 CNS): > 100 µM | TGI (SF-539 CNS): > 100 µM | TGI (786-0 renal): > 100 µM | TGI (HL-60(TB) leukemia): > 100 µM | TGI (SNB-75 CNS): > 100 µM | TGI (IGROV1 ovarian): > 100 µM | TGI (OVCAR-3 ovarian): > 100 µM | TGI (HT29 colon): > 100 µM | TGI (T-47D breast): > 100 µM | TGI (A498 renal): > 100 µM | TGI (OVCAR-5 ovarian): > 100 µM | TGI (DU-145 prostate): > 100 µM | TGI (SR leukemia): > 100 µM | TGI (NCI-H226 lung): > 100 µM | TGI (MOLT-4 leukemia): > 100 µM | TGI (SNB-19 CNS): > 100 µM | TGI (SK-MEL-28 melanoma): > 100 µM | TGI (SF-268 CNS): > 100 µM | TGI (LOX IMVI melanoma): > 100 µM | TGI (M14 melanoma): > 100 µM | TGI (HCT-15 colon): > 100 µM | TGI (NCI/ADR-RES ovarian): > 100 µM | TGI (RPMI-8226 leukemia): > 100 µM | TGI (K-562 leukemia): > 100 µM | TGI (U251 CNS): > 100 µM | TGI (UO-31 renal): > 100 µM | TGI (UACC-257 melanoma): > 100 µM | TGI (OVCAR-8 ovarian): > 100 µM | TGI (MALME-3M melanoma): > 100 µM | TGI (RXF 393 renal): > 100 µM | TGI (UACC-62 melanoma): > 100 µM

CCCCc1cc2c(C)cc(=O)oc2c(O)c1O
TGI (SK-MEL-5 melanoma): 46.5 µM | TGI (MCF7 breast): 45.7 µM | TGI (CAKI-1 renal): 53.3 µM | TGI (NCI-H522 lung): 49 µM | TGI (KM12 colon): 64.3 µM | TGI (TK-10 renal): > 100 µM | TGI (HOP-62 NSCLC): 65.8 µM | TGI (OVCAR-4 ovarian): > 100 µM | TGI (EKVX NSCLC): > 100 µM | TGI (SK-MEL-2 melanoma): > 100 µM | TGI (MDA-N): > 100 µM | TGI (NCI-H23 lung): > 100 µM | TGI (SN12C renal): > 100 µM | TGI (MDA-MB-231 breast): 28 µM | TGI (BT-549 breast): 33.6 µM | TGI (NCI-H460 lung): > 100 µM | TGI (HOP-92 NSCLC): 59.6 µM | TGI (PC-3 prostate): 68.1 µM | TGI (COLO 205 colon): 56.5 µM | TGI (SW-620 colon): 62.2 µM | TGI (CCRF-CEM leukemia): 56.3 µM | TGI (A549 NSCLC): > 100 µM | TGI (MDA-MB-435): > 100 µM | TGI (ACHN renal): 94 µM | TGI (HCT-116 colon): 96.1 µM | TGI (HS 578T breast): 59.5 µM | TGI (SF-295 CNS): 67.3 µM | TGI (SF-539 CNS): 47.4 µM | TGI (786-0 renal): 99.4 µM | TGI (HL-60(TB) leukemia): 38.4 µM | TGI (SNB-75 CNS): > 100 µM | TGI (IGROV1 ovarian): 51.7 µM | TGI (OVCAR-3 ovarian): 82 µM | TGI (HT29 colon): 77 µM | TGI (T-47D breast): 82.3 µM | TGI (A498 renal): 72 µM | TGI (OVCAR-5 ovarian): > 100 µM | TGI (DU-145 prostate): > 100 µM | TGI (SR leukemia): 40.2 µM | TGI (NCI-H226 lung): 67.9 µM | TGI (MOLT-4 leukemia): > 100 µM | TGI (SNB-19 CNS): > 100 µM | TGI (SK-MEL-28 melanoma): > 100 µM | TGI (SF-268 CNS): > 100 µM | TGI (LOX IMVI melanoma): 61 µM | TGI (M14 melanoma): 85 µM | TGI (HCT-15 colon): > 100 µM | TGI (NCI/ADR-RES ovarian): 56.4 µM | TGI (RPMI-8226 leukemia): 43.3 µM | TGI (K-562 leukemia): 73.5 µM | TGI (U251 CNS): 56.1 µM | TGI (UO-31 renal): 54.6 µM | TGI (HCC-2998 colon): 15.7 µM | TGI (UACC-257 melanoma): 66.1 µM | TGI (OVCAR-8 ovarian): > 100 µM | TGI (MALME-3M melanoma): 88.9 µM | TGI (RXF 393 renal): 59.6 µM

CCc1c(Cc2cccc3ccccc23)n2c(nc1=O)SCC2OCCO (stereo not drawn)
TGI (SK-MEL-5 melanoma): > 100 µM | TGI (MCF7 breast): > 100 µM | TGI (CAKI-1 renal): > 100 µM | TGI (NCI-H522 lung): > 100 µM | TGI (KM12 colon): > 100 µM | TGI (TK-10 renal): > 100 µM | TGI (OVCAR-4 ovarian): > 100 µM | TGI (EKVX NSCLC): > 100 µM | TGI (SK-MEL-2 melanoma): > 100 µM | TGI (MDA-N): > 100 µM | TGI (NCI-H23 lung): > 100 µM | TGI (SN12C renal): > 100 µM | TGI (MDA-MB-231 breast): > 100 µM | TGI (BT-549 breast): > 100 µM | TGI (NCI-H460 lung): > 100 µM | TGI (HOP-92 NSCLC): 34.7 µM | TGI (PC-3 prostate): > 100 µM | TGI (COLO 205 colon): > 100 µM | TGI (SW-620 colon): > 100 µM | TGI (CCRF-CEM leukemia): 74 µM | TGI (A549 NSCLC): > 100 µM | TGI (MDA-MB-435): 38.4 µM | TGI (ACHN renal): > 100 µM | TGI (HCT-116 colon): > 100 µM | TGI (HS 578T breast): > 100 µM | TGI (SF-539 CNS): > 100 µM | TGI (786-0 renal): > 100 µM | TGI (HL-60(TB) leukemia): > 100 µM | TGI (SNB-75 CNS): > 100 µM | TGI (IGROV1 ovarian): > 100 µM | TGI (HT29 colon): > 100 µM | TGI (T-47D breast): > 100 µM | TGI (A498 renal): > 100 µM | TGI (OVCAR-5 ovarian): > 100 µM | TGI (DU-145 prostate): > 100 µM | TGI (SR leukemia): 89.4 µM | TGI (NCI-H226 lung): > 100 µM | TGI (MOLT-4 leukemia): > 100 µM | TGI (SNB-19 CNS): > 100 µM | TGI (SK-MEL-28 melanoma): > 100 µM | TGI (SF-268 CNS): > 100 µM | TGI (LOX IMVI melanoma): > 100 µM | TGI (M14 melanoma): > 100 µM | TGI (HCT-15 colon): > 100 µM | TGI (NCI/ADR-RES ovarian): > 100 µM | TGI (RPMI-8226 leukemia): 94.4 µM | TGI (K-562 leukemia): > 100 µM | TGI (U251 CNS): > 100 µM | TGI (UO-31 renal): > 100 µM | TGI (HCC-2998 colon): > 100 µM | TGI (UACC-257 melanoma): > 100 µM | TGI (OVCAR-8 ovarian): > 100 µM | TGI (MALME-3M melanoma): > 100 µM | TGI (RXF 393 renal): > 100 µM | TGI (UACC-62 melanoma): > 100 µM
